In patent publication US6982246B1, “Cytomodulating peptide for inhibiting lymphocyte activity” (SangStat Medical Corporation, priority 1995, dated 2006):
“Also recorded” adds a separate entry of the source. Ends that are not written are not given here. * marks the point of attachment. Biotin = O=C1N[C@H]2[C@H](CS[C@H]2CCCCC(=O)*)N1

What was measured:
[1] = test system: CTL activity (CBA to B6 effector cells, EL4 target cells); assay: Cytotoxic T cell activity (51Cr release); type: cell-based, mouse; details: for inhibition of CTL activity: result in words
Protocol: Cytotoxic T Cell Activity. To assay the effect of peptides on cytotoxic T cell activity, CBA to B6 effector cells were prepared following a 6-day culture of 4×10^6 CBA spleen cells with 5×10^6 mitomycin-treated B6 spleen cells in wells of a 24 well plate (Nuncion Delta, Nunc, Denmark) in RPMI-1640 with 10% FBS. Effector cells were then harvested and washed. EL4 (H-2^b), a mouse lymphoma induced in C57BL/6N was used as target cells. Cultured EL4 cells were maintained and sub-cultured once every three days […] Effector (E) and target (T) cells were then added into V-shaped tissue culture plates (Nunc, Denmark) at E:T ratios of 3:1, 10:1, 30:1, 100:1, respectively. Peptides were diluted to the working concentrations with R-10 medium and added at the beginning of the 4-hour incubation period. For the determination of maximal release, 1% Triton X-100 was added to separate wells. Plates were then centrifuged for 2 min to increase cellular contact before the 4-hour incubation period. After incubation, 75 μl supernatant from each well was collected and the amount of ^51Cr was counted using a TopCount Scintillation Counter. The degree of cell lysis was calculated using the formula below: [formula]

[2] = test system: anti-CD3 stimulation of CBA spleen cells; assay: Anti-CD3 stimulation ([3H]-TdR incorporation); type: cell-based, mouse; details: for inhibition of anti-CD3 stimulation: result in words
Protocol: Anti-CD3 Stimulation and Mixed Lymphocyte Culture. Spleen cells isolated from CBA mice were stimulated (2×10^5/well) with anti-CD3 monoclonal antibody (Pharmingen, San Diego) at a final concentration of 0.1 to 1 μg/ml in 96-well, round-bottom microculture plates (Nunc, Denmark). Peptides at various concentrations were added at the beginning of the culture. Cells were incubated for a period of 3 days at 37° C., 5% CO2. Twenty-four hours before harvesting 1 μCi[^3H]-TdR (Amersham, Arlington Heights, Ill.) was added to individual wells. Cells were then harvested using a Filtermate 196 Harvester (Packard, Downers Grove, Ill.) and the degree of thymidine incorporation was measured using a TopCount Microplate Scintillation Counter (Packard). For MLR, CBA spleen cells were used as responders and B6 spleen cells as stimulators. B6 spleen cells were pre- treated with mitomycin-C (Calbiochem, La Jolla, Calif.) at 0.5 mg/ml for 20 min at 36° C. Cells were then washed three times to remove excess mitomycin-C. CBA spleen cells (2×10^5/well) were cultured with an equal number of mitomycin C-treated B6 cells in serum-free Aim V medium for periods of 3 to 6 days. One microcurie of [^3H]-TdR was added to the culture 24 hour before cell harvesting and the degree of thymidine incorporation was quantified as described above.

[3] = test system: human peripheral blood lymphocytes; assay: Staining of PBLs with biotinylated peptide panel; type: binding; details: for binding to PBLs: 50 μg/ml biotinylated peptide; for binding on resting lymphocytes: majority of binding on macrophage/polymorphonuclear leukocytes population
Description: (§1) In the next study, human peripheral blood lymphocytes were isolated and stained with the biotinylated peptide panel. […] Using human and murine cell lines, a spectrum of binding affinity was observed.

[4] = test system: Jurkat cell line E6-1; assay: Binding of biotinylated peptide to cell lines; details: among human and murine cell lines
Description: as §1

[5] = test system: B6 hearts in CBA recipients; assay: Heterotopic heart transplantation; type: in vivo, mouse; details: 10 mg/kg/day, day 0 to day 10; untreated MST 7.5+/−1.1; p=0.0007
Protocol: The in vivo immunosuppressive activity of the peptides was evaluated in heterotopic heart transplantation in the model described by Ono and Lindsey, (J Thorac Cardiovasc Surg 1969, 7:225). CBA recipients of B6 hearts were treated 10 mg/kg/day of p15 from day 0 to day 10 after transplantation. Untreated recipients rejected the allografts between day 6 and 10 (MST=7.5+/−1.1 days). Treatment of recipients with p15 lead to a significant increase of graft survival (MST=14.4+/−1.5 days, p vs control=0.0007; Mann-Whitney Test).

[6] = test system: NK cell activity (killing of YAC-1 cells by CBA spleen cells); assay: NK cell activity (51Cr release); type: cell-based, mouse; details: YAC-1 targets, freshly isolated CBA spleen cells
Protocol: NK Cell Activity. YAC-1, a mouse lymphoma which was induced by inoculation of Moloney leukemia virus into a newborn A/Sn mouse was used as the NK cell target (ATCC TIB 160). Four thousand sodium chromate labeled YAC-1 cells were cultured with different concentrations of freshly isolated CBA spleen cells (effector to target ratios: 62.5:1, 125:1, 250:1, 500:1) in V-shaped bottom plates with RPMI-1640 containing 10% FBS for 4 h at 37° C., 5% CO2. The degree of cell lysis was quantified by the release of ^51Cr into the supernatants. After incubation, plates were centrifuged and 75 μl of supernatant was collected. The degree of cell lysis was measured using a TopCount Scintillation Counter. The degree of cell lysis was calculated using the formula below: [formula]

[7] = test system: anti-H2b CTL effector population; assay: Binding of biotinylated peptide to CTL effectors; design: species or system mouse; details: cells activated (IL-2 receptor expression)

Substance | inhibition of CTL activity [1] | inhibition of anti-CD3 stimulation at 5 μg/ml [2] | inhibition of anti-CD3 stimulation at 50 μg/ml [2] | inhibition of anti-CD3 stimulation [2] | further results
23: Bt-SGSG-NLRIALRY [compound 23] | inhibitory activity substantially greater than contol | – | – | – | –
Woo-2: Bt-SGSG-RENLRIALRY (Biotin-SGSGRENLRIALRY-OH) | – | substantially less inhibition | substantially complete inhibition | inhibit the anti-CD3 stimulation in a dose dependent manner | –
peptide 2: Bi-SGSG-RVNLRIALRY (Biotin-SGSGRVNLRIALRY-OH) | inhibited CTL activity | substantially less inhibition | substantially complete inhibition | inhibit the anti-CD3 stimulation in a dose dependent manner | binding to PBLs [3]: bound to the PBLs; binding on resting lymphocytes [3]: little or no binding on resting lymphocytes
27: Bt-SGSG-QTDRENLRIA [compound 27] | inhibitory activity substantially greater than contol | significant levels of inhibition | – | – | –
Bue-4: ENLRIAL | – | substantially less inhibition | substantially complete inhibition | inhibit the anti-CD3 stimulation in a dose dependent manner | –
16: Bi-SGSG-LRIALRYYWD [compound 16] | inhibitory activity substantially greater than contol | substantially less inhibition | substantially complete inhibition | inhibit the anti-CD3 stimulation in a dose dependent manner | –
17: Bt-SGSG-IALRYYWDS [compound 17] | – | substantially less inhibition | substantially complete inhibition | inhibit the anti-CD3 stimulation in a dose dependent manner | –
Bue-5: NLRIAL | – | significant levels of inhibition | substantially complete inhibition | inhibit the anti-CD3 stimulation in a dose dependent manner | –
Bue-3: ENLRIALR | – | substantially less inhibition | substantially complete inhibition | inhibit the anti-CD3 stimulation in a dose dependent manner | –
3: Bt-SGSG-RENLRTALRY (Biotin-SGSGRENLRTALRY-OH) [compound 3] | – | substantially less inhibition | substantially complete inhibition | inhibit the anti-CD3 stimulation in a dose dependent manner | –
20: Bt-SGSG-RIALRAAA [compound 20] | inhibitory activity substantially greater than contol | – | – | – | –
40: Bt-SGSG-RENLRIALRA [compound 40] | – | substantially less inhibition | substantially complete inhibition | inhibit the anti-CD3 stimulation in a dose dependent manner | –
34: Bt-SGSG-REALRIALRY [compound 34] | inhibitory activity substantially greater than contol | – | – | – | –
41: Bt-SGSG-RVDLRTLRGY [compound 41] | – | substantially less inhibition | substantially complete inhibition | inhibit the anti-CD3 stimulation in a dose dependent manner | –
4: Bt-SGSG-RVNLRTALRY [compound 4] | inhibitory activity substantially greater than contol | – | – | – | –
42: Bt-SGSG-RVSLRNLRGY [compound 42] | – | significant levels of inhibition | substantially complete inhibition | inhibit the anti-CD3 stimulation in a dose dependent manner | –
43: Bt-SGSG-RVNLRTLRRY; marked E in the table [compound 43] | – | significant levels of inhibition | substantially complete inhibition | inhibit the anti-CD3 stimulation in a dose dependent manner | –
19: Bt-SGSG-LRYYWDSEA [compound 19] | inhibitory activity substantially greater than contol | – | – | – | –
Bue-1: 2702 MAP; no sequence printed in the table (SGSGRENLRIALRY; not fully specified; also: MAP construct) | – | substantially less inhibition | substantially complete inhibition | inhibit the anti-CD3 stimulation in a dose dependent manner | –
Bt-SGSG-NLRIALRYYW; positions 77–85 terminating with tryptophan (Biotin-SGSGNLRIALRYYW-OH) [peptide 15] | inhibited CTL activity; also recorded: highest degree of inhibition | substantially less inhibition | substantially complete inhibition | inhibit the anti-CD3 stimulation in a dose dependent manner | degree of binding to cell line [4]: highest degree of binding; graft survival MST [5]: 14.4 ± 1.5 days; inhibition of NK cell killing [6]: able to inhibit the killing of YAC-1; CTL inhibition across different MHC combinations ([1]; H2k>H2b, H2d>H2b, H2k>H2d strain combinations): greater activity than B2702 monomer; also recorded: non-MHC restricted; percentage lysis in presence of peptide ([1]; lysis without peptide 42%): 7%; binding to PBLs [3]: bound to the PBLs; binding on resting lymphocytes [3]: little or no binding on resting lymphocytes; binding to activated CTL effector cells [7]: binding of peptide 15 was observed
